Measurements from patent publication US9296760B2, “Antibacterial compounds” (JANSSEN SCIENCES IRELAND UC, priority 2012, dated 2016).
Values after ≈ are worked out from the molar mass of the structure shown.

Tests used:
Cytotoxicity MTT assay = format: cell-based, Human; details: human, HelaM cells, read-out: HELAM (222.125) CC50
Experimental: Cytotoxicity of the compounds was evaluated using the MTT assay. Human HelaM cells grown in 96-well plates were exposed to serial dilutions of the tested compounds (final volume of 0.2 ml) and incubated for 72 hours at 37° C. and 5% CO2 Inhibitors are typically varied over the range of 25 to 0.8 μM. The final DMSO concentration in the assay is 0.5%. MTT (3-(4,5-Dimethylthiazol-2-yl)-2,5-diphenyltetrazolium bromide, a tetrazole) was added and reduced to purple formazan only in living cells. Solubilization of the formazan crystals was achieved by adding 100 μl 2-propanol. Cell viability was determined by measuring the absorbance of the reduced formazan, giving a purple color, at 540 nm and 690 nm. The absorbance measured at 690 nm was automatically subtracted from the absorbance at 540 nm, to eliminate the effects of non-specific absorption. The percent cytotoxicity achieved by the compounds was calculated according to standard methods. Cytotoxicity is reported as CC50, the concentration that causes a 50% reduction in cell viability.
The results are depicted in the table(s) below (HELAM).

[1] = tested on: Staphylococcus aureus ATCC 29213; test: Antibacterial susceptibility testing, IC90 determination (broth microdilution, resazurin); format: cell-based; details: Staphylococcus aureus, ATCC29213, S. aureus ATCC 29213; 90% inhibitory concentration for bacterial growth; read-out: STA (361.159) IC90
Experimental: Y.2 In Vitro Method for Testing Compounds for Antibacterial Activity Against Various Bacterial Strains
Preparation of Bacterial Suspensions for Susceptibility Testing
The following bacteria were used: Staphylococcus aureus ATCC 29213, methicillin-resistant Staphylococcus aureus (MRSA) ATCC 700788 and Escherichia coli ATCC 35218. The bacteria used in this study were grown overnight in flasks containing 100 ml Mueller-Hinton broth (Difco cat. nr. 0757-17) in sterile de-ionized water, with shaking, at 37° C. Stocks were store at −70° C. until use.
Bacteria were incubated on a tryptic soy agar plate containing 5% sheep blood (Becton Dickinson cat. nr. 254053) for 18-24 hours at 35° C. in aerobic conditions (first passage). For the second passage, fresh Mueller-Hinton broth is inoculated with 5-10 colonies and grown overnight at 35° C. until turbidity (reaching log-phase) in aerobic conditions is reached. The bacterial suspension is then adjusted to 0.5 McFarland density and further diluted 1:100 in Mueller Hinton broth medium. This is used as inoculum.
The result(s) are depicted the table below (for STA ATCC 29213).
Antibacterial Susceptibility Testing: IC90 Determination
(§1) MIC assays were performed by the broth microdilution method in a 96-well format (flat-bottom microtitre plates) with a final volume of 0.1 ml Mueller Hinton broth containing two-fold serial dilutions of compounds and inoculated with 5×10^5 CFU/ml of bacteria (standard inoculum size according to CLSI guidelines). Inhibitors are typically varied over the range of 63 to 0.49 μM. The final DMSO concentration in the assay was 1.25% (maximum tolerable DMSO concentration=6%). In the assays where the effect of human serum on the activity of the compounds against S. aureus was tested, human serum was added at a final concentration of 10%. The plates were incubated at 35° C. for 16-20 hours. At the end of incubation the bacterial growth was quantified fluorometrically. For this, resazurin was added to all wells and the plates were re-incubated. The incubation time is dependent on the type of bacteria. A change in color from blue to pink indicated the growth of bacteria. The fluorescence was read in computer-controlled fluorometer (Fluoroskan Ascent FL, Labsystems) at an excitation wavelength 540 nm and an emission wavelength of 590 nm. The % growth inhibition achieved by the compounds was calculated according to standard methods. The IC90 (expressed in μg/ml) was defined as the 90% inhibitory concentration for bacterial growth. A panel of reference compounds were simultaneously tested for QC approval.

[2] = target: T1, S. aureus ATCC 29213 FabI (Staphylococcus aureus, UniProt Q6GI75); test: Staphylococcus aureus FabI enzyme inhibition assay; format: biochemical; details: NADH consumption, 30 minutes, read-out: FabI (300.235) IC50 (converted)
T1 sequence (Q6GI75 1-256): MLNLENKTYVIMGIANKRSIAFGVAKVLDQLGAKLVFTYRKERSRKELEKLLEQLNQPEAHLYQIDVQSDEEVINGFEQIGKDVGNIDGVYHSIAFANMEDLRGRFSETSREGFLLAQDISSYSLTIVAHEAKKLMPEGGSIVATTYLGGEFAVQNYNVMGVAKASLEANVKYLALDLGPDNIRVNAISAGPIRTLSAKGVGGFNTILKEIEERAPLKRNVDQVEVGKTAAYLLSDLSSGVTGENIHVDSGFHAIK
Experimental: Y.1 FabI Enzyme Inhibition: Staphylococcus aureus FabI Enzyme Inhibition Assay
FabI enzyme inhibition assays were carried out in half-area, 384-well microtitre plates. […] The reaction mixtures were incubated for 30 minutes at room temperature and the reaction was stopped by adding 200 mM Tris buffer (pH 9.0) to create a pH-shift. The consumption of NADH was monitored by measuring the change in absorbance at […]. By comparing sample readings to those of negative (absence of compound) and positive (absence of enzyme) controls, the percent inhibition of enzymatic activity of the compounds was determined A best-fit curve is fitted by a minimum of squares method. From this an IC50-value (expressed in μg/ml), resulting in 50% inhibition of enzymatic activity, was obtained.

S. aureus = test: Antibacterial susceptibility testing, IC90 determination with 10% human serum; format: cell-based, Staphylococcus aureus; details: Staphylococcus aureus, S. aureus with human serum at final concentration of 10%; read-out: STA + 10% HS (361.169) IC90
Experimental: as §1, with “Antibacterial Susceptibility Testing: IC90 Determination MIC” for “MIC”, “approval. The results are depicted in the table(s) below (STA+10% HS).” for “approval.”

COc1ccc(F)cc1C1=CCCN(C(=O)/C=C/c2ccc(NC(=O)c3cccnc3)nc2)CC1 [compound 3]
CC50 at 72 h (Cytotoxicity MTT assay): 1.13 µg/mL (≈ 2.39 µM)
IC90 [1]: 0.45 µg/mL (≈ 0.952 µM)
IC50 [2]: 1.63 µM
IC90 (S. aureus): 1.68 µg/mL
melting point: 122 °C

COc1ccc(F)cc1C1=CCCN(C(=O)/C=C/c2cnc3c(c2)CNCC(=O)N3)CC1 [compound 31]
CC50 at 72 h (Cytotoxicity MTT assay): > 11 µg/mL
IC90 [1]: < 0.21 µg/mL
IC50 [2]: ~0.933 µM
IC90 (S. aureus): 0.26 µg/mL
melting point: 192 °C

Nc1ccc(/C=C/C(=O)N2CC=C(c3ccccc3)CCC2)cn1 [compound 21]
CC50 at 72 h (Cytotoxicity MTT assay): 4.78 µg/mL (≈ 15 µM)
IC90 [1]: 6.75 µg/mL (≈ 21.1 µM)
IC50 [2]: 3.88 µM
IC90 (S. aureus): 12.9 µg/mL
melting point: 184 °C

O=C(Nc1ccc(/C=C/C(=O)N2CCC=C(c3ccccc3)CC2)cn1)c1ccccc1 [compound 9]
CC50 at 72 h (Cytotoxicity MTT assay): 4.24 µg/mL (≈ 10 µM)
IC90 [1]: 0.85 µg/mL (≈ 2.01 µM)
IC50 [2]: 1.82 µM
IC90 (S. aureus): 6.26 µg/mL
melting point: 158.31 °C

O=C1Nc2ncc(/C=C/C(=O)N3CC=C(c4ccccc4)CCC3)cc2CN2CCSCC12 (stereo not shown) [compound 51]
CC50 at 72 h (Cytotoxicity MTT assay): 5.35 µg/mL (≈ 11.6 µM)
IC90 [1]: 0.67 µg/mL (≈ 1.45 µM)
IC50 [2]: 1.11 µM
IC90 (S. aureus): 1.6 µg/mL
melting point: 224 °C

COc1ccc(CN2CC(=O)Nc3ncc(/C=C/C(=O)N4CCC=C(c5ccccc5)CC4)cc3C2)cc1 [compound 44]
CC50 at 72 h (Cytotoxicity MTT assay): > 12.8 µg/mL
IC90 [1]: 4.8 µg/mL (≈ 9.44 µM)
IC50 [2]: ~2.81 µM
IC90 (S. aureus): 3.64 µg/mL
melting point: 198 °C

CN1CC(=O)Nc2ncc(/C=C/C(=O)N3CCC=C(c4cccs4)CC3)cc2C1 [compound 33]
CC50 at 72 h (Cytotoxicity MTT assay): > 10.3 µg/mL
IC90 [1]: 0.32 µg/mL (≈ 0.783 µM)
IC50 [2]: 1.25 µM
IC90 (S. aureus): 0.26 µg/mL
melting point: 125 to 126 °C

Cc1occc1C(=O)Nc1ccc(/C=C/C(=O)N2CCC=C(c3ccccc3)CC2)cn1 [compound 8]
CC50 at 72 h (Cytotoxicity MTT assay): 5.64 µg/mL (≈ 13.2 µM)
IC90 [1]: 0.84 µg/mL (≈ 1.96 µM)
IC50 [2]: 2.13 µM
IC90 (S. aureus): 6.7 µg/mL
melting point: 192 °C

CN1CC(=O)Nc2ncc(/C=C/C(=O)N3CC=C(c4cccs4)CCC3)cc2C1 [compound 43]
CC50 at 72 h (Cytotoxicity MTT assay): > 10.3 µg/mL
IC90 [1]: 1.13 µg/mL (≈ 2.77 µM)
IC50 [2]: 2.62 µM
IC90 (S. aureus): 1.32 µg/mL
melting point: 212 to 213 °C

O=C(Nc1ccc(/C=C/C(=O)N2CCC=C(c3ccccc3)CC2)cn1)c1ccoc1 [compound 2]
CC50 at 72 h (Cytotoxicity MTT assay): > 10.4 µg/mL
IC90 [1]: 0.44 µg/mL (≈ 1.06 µM)
IC50 [2]: 1.19 µM
IC90 (S. aureus): 1.43 µg/mL
melting point: 156 °C

O=C(Nc1ccc(/C=C/C(=O)N2CCC=C(c3ccccc3)CC2)cn1)c1ccncc1 [compound 13]
CC50 at 72 h (Cytotoxicity MTT assay): 4.29 µg/mL (≈ 10.1 µM)
IC90 [1]: 1.41 µg/mL (≈ 3.32 µM)
IC50 [2]: 1.25 µM
IC90 (S. aureus): 3.08 µg/mL
melting point: 98 °C

O=C1Nc2ncc(/C=C/C(=O)N3CCC=C(c4ccccc4)CC3)cc2CO1 [compound 41]
CC50 at 72 h (Cytotoxicity MTT assay): > 9.43 µg/mL
IC90 [1]: 0.6 µg/mL (≈ 1.6 µM)
IC50 [2]: 0.986 µM
IC90 (S. aureus): 0.67 µg/mL
melting point: 244.33 °C

CC(=O)N1CCN2Cc3cc(/C=C/C(=O)N4CCC=C(c5ccccc5)CC4)cnc3NC(=O)C2C1 (stereo not shown) [compound 47]
CC50 at 72 h (Cytotoxicity MTT assay): 17.6 µg/mL (≈ 36.3 µM)
IC90 [1]: 0.25 µg/mL (≈ 0.515 µM)
IC50 [2]: 0.783 µM
IC90 (S. aureus): 0.44 µg/mL
melting point: 208 °C

O=C(/C=C/c1ccc(NC(=O)C(F)(F)F)nc1)N1CCC=C(c2ccccc2)CC1 [compound 22]
CC50 at 72 h (Cytotoxicity MTT assay): 8.01 µg/mL (≈ 19.3 µM)
IC90 [1]: 11.6 µg/mL (≈ 27.9 µM)
IC50 [2]: 1.08 µM
IC90 (S. aureus): 12.1 µg/mL
melting point: 159 °C

COc1ccc(F)cc1C1=CCCN(C(=O)/C=C/c2ccc(NC(=O)c3cncc(C)c3)nc2)CC1 [compound 5]
CC50 at 72 h (Cytotoxicity MTT assay): 7.8 µg/mL (≈ 16 µM)
IC90 [1]: 0.66 µg/mL (≈ 1.36 µM)
IC50 [2]: 1.79 µM
IC90 (S. aureus): 2.83 µg/mL
melting point: 120 °C

COc1ccc(F)cc1C1=CCCN(C(=O)/C=C/c2cnc3c(c2)COC(=O)N3)CC1 [compound 35]
CC50 at 72 h (Cytotoxicity MTT assay): 6.56 µg/mL (≈ 15.5 µM)
IC90 [1]: 0.38 µg/mL (≈ 0.897 µM)
IC50 [2]: ~1.02 µM
IC90 (S. aureus): 0.54 µg/mL
melting point: 218.22 °C

O=C(/C=C/c1ccc(Nc2ccccc2)nc1)N1CCC=C(c2ccccc2)CC1 [compound 14]
CC50 at 72 h (Cytotoxicity MTT assay): 6.27 µg/mL (≈ 15.9 µM)
IC90 [1]: 1.45 µg/mL (≈ 3.67 µM)
IC50 [2]: 2.25 µM
IC90 (S. aureus): 24.1 µg/mL
melting point: 150 °C

O=C(Nc1ccc(/C=C/C(=O)N2CCC=C(c3ccccc3)CC2)cn1)c1cccnc1 [compound 1]
CC50 at 72 h (Cytotoxicity MTT assay): 0.43 µg/mL (≈ 1.01 µM)
IC90 [1]: 0.4 µg/mL (≈ 0.942 µM)
IC50 [2]: 0.73 µM
IC90 (S. aureus): 0.84 µg/mL
melting point: 186 °C

O=C(Nc1ccc(/C=C/C(=O)N2CCC=C(c3ccccc3)CC2)cn1)c1c[nH]cn1 [compound 11]
CC50 at 72 h (Cytotoxicity MTT assay): > 10.4 µg/mL
IC90 [1]: 1.26 µg/mL (≈ 3.05 µM)
IC50 [2]: 1.62 µM
IC90 (S. aureus): 3.17 µg/mL
melting point: 120 °C

Cn1cnc(C(=O)Nc2ccc(/C=C/C(=O)N3CCC=C(c4ccccc4)CC3)cn2)c1 [compound 17]
CC50 at 72 h (Cytotoxicity MTT assay): 13.9 µg/mL (≈ 32.5 µM)
IC90 [1]: 4.29 µg/mL (≈ 10 µM)
IC50 [2]: 2.41 µM
IC90 (S. aureus): 8.56 µg/mL
melting point: 134 °C

O=C1CNCc2cc(/C=C/C(=O)N3CCC=C(c4ccccc4)CC3)cnc2N1 [compound 34]
CC50 at 72 h (Cytotoxicity MTT assay): > 9.76 µg/mL
IC90 [1]: 0.37 µg/mL (≈ 0.952 µM)
IC50 [2]: 0.901 µM
IC90 (S. aureus): 0.38 µg/mL
melting point: 203.18 °C

O=C1Nc2ncc(/C=C/C(=O)N3CCC=C(c4ccccc4)CC3)cc2CN2CCOCC12 (stereo not shown) [compound 46]
CC50 at 72 h (Cytotoxicity MTT assay): > 11.2 µg/mL
IC90 [1]: < 0.22 µg/mL
IC50 [2]: 0.562 µM
IC90 (S. aureus): 0.53 µg/mL
melting point: 227.76 °C

CC(=O)Nc1ccc(/C=C/C(=O)N2CCC=C(c3ccccc3)CC2)cn1 [compound 6]
CC50 at 72 h (Cytotoxicity MTT assay): > 9.08 µg/mL
IC90 [1]: 0.69 µg/mL (≈ 1.91 µM)
IC50 [2]: ~0.802 µM
IC90 (S. aureus): 1.9 µg/mL
melting point: 152 °C
